From patent publication US6548059B1, “Promotion of proliferation of adult corneal endothelial cells” (The Schepens Eye Research Institute, Inc., priority 1999, dated 2003)
Where two headings read alike, the source gives them in different places.

Tests used:
[1] = system: corneal endothelial cells; settings: for Avg. % KI67 (+) Cells: 24 hr pre-incubation in mitogen-containing medium, n = 2-3 donor corneas
Procedure: (§1) Twenty-one human corneas were obtained from donors of about 52-75 years of age (Avg.=65.1 years old). Whole corneas were usually cut in quarters to increase sample size. In some cases, whole corneas were used as controls. Corneal pieces were placed endothelial-side up in individual wells of a 24-well tissue culture plate (Falcon, Lincoln Park, N.J.). Pieces were incubated for about 24 hrs in Medium-199 containing 10% fetal bovine serum (FBS), 10 ng/ml epidermal growth factor (EGF) (Upstate Biotechnologies, Lake Placid, N.Y.), 20 ng/ml fibroblast growth factor(FGF) (pituitary-derived, Biomedical Research Technologies, Stoughton, Mass.), and […] gentamicin to stabilize the endothelium prior to study. Ethylenediamine tetraacetic acid (e.g., di-sodium EDTA.2 H2O) was prepared in Hank's Balanced Salt Solution (HBSS) without calcium chloride, magnesium chloride, or magnesium sulfate: Life Technologies, Grand Island, N.Y.), adjusted to pH7.4, and added to the culture medium at a final concentration of 0.02, 0.2, or 2.0 mg/ml. Corneas were treated with EDTA for 10, 30, or 60 min and then returned to culture medium for up to 96 hrs. Negative controls for EDTA treatment included exposing corneal pieces to all manipulations and incubation conditions, including 1 hour in HBSS, but without EDTA. All corneas were maintained at 37° C. in a 5% carbon dioxide, humidified atmosphere until removal for analysis of cell cycle progression.
Immunolocalization was carried out using the same antibodies and protocols as described previously for ZO-1 (10) and Ki67 (19). Corneal pieces stained for Ki67 were mounted in medium containing propidium iodide (PI: Vector Laboratories, Inc., Burlingame, Calif.) to visualize all nuclei. In some cases, samples were double-stained for both Ki67 and ZO-1. Slides were viewed using a Leica TCS 4D confocal microscope equipped with a Leitz DMRBE laser and SCANware 4.2 software (Leica Lasertechnik, Heidelberg, Germany). Images were collected from the central region of the corneal pieces away from the cut edges using a 16×, 40×, or 100×-oil immersion lens. Laser power and gain controls were adjusted to achieve an optimal range of output signal intensity for each channel. Confocal images were collected and micrographs were printed using Photoshop software v4.0 (Adobe Systems, Inc., San Jose, Calif.). For some micrographs, the printing contrast was adjusted to provide a clearer image.
Fluorescence confocal immunocytochemistry for Ki67 was used to evaluate corneal endothelial cells for their ability to enter and complete the cell cycle (i.e., cell proliferation or mitosis). All nuclei were stained with PI. Positive Ki67 staining patterns indicated the presence of actively cycling cells and also acted as markers for specific phases of the cell cycle. Completion of the cell cycle was determined by observation of mitotic figures stained with Ki67. Three representative confocal micrographs were taken per corneal quarter using a 40×-objective lens. An NIH Image v1.62 software program was used to count total PI-stained nuclei, total Ki67-positive cells, and cells in the G1-phase, S/G2-phase, or M-phase of the cell cycle. Cells were counted in five […] areas of each micrograph (=15 areas counted per corneal piece). Counts were averaged and the percentage of actively cycling cells and of cells in each phase of the cell cycle was calculated. Each study was conducted using corneas from 2-3 different donors. Statistical comparisons were made by a paired Student's t-test using a StatView v4.11 software program (Abacus Concepts, Inc., Berkeley, Calif.). Results reported in Table 1 were expressed as percentage of Ki67-positive cells +/−SD.

[2] = system: corneal endothelial cell-cell contacts
Procedure: as §1, with “All corneas were maintained at 37° C. in a 5% carbon dioxide, humidified atmosphere until removal for analysis of cell cycle progression.” left out

SMILES: O=C(O)CN(CCN(CC(=O)O)CC(=O)O)CC(=O)O [EDTA, ethylenediaminetetraacetic acid]
- time to complete the cell cycle after EDTA treatment (mitotic figures) ([1]; 24 hours pre-incubation, 0.2 mg/ml EDTA for 60 min, single donor): approximately 48 hrs
- Avg. % KI67 (+) Cells ([1]; EDTA 0.2 mg/ml, 30 minutes): 8.67%
- Avg. % KI67 (+) Cells ([1]; EDTA 0.2 mg/ml, 60 minutes): 11.99%
- percent of the cells stimulated to proliferate ([1]; EDTA 2.0 mg/ml for 60 minutes, after preincubation in culture medium): 16-18%
- Avg. % KI67 (+) Cells ([1]; EDTA 2.0 mg/ml, 30 minutes): 14.28%
- Avg. % KI67 (+) Cells ([1]; EDTA 2.0 mg/ml, 60 minutes): 17.18%
- percent of the cell population that entered the cell cycle ([1]; intact endothelial monolayer treated with EDTA and mitogens): around 17%
- cell cycle progression (Ki67 stained nuclei and mitotic figures) ([1]; pre-incubation in mitogen-containing medium, then EDTA, 48 hour post-incubation): did promote cell cycle progression
- proliferation (Ki67 staining) with EDTA alone ([1]; up to 2.0 mg/ml EDTA, no prior or simultaneous growth factor, post-incubated 48 hours in mitogen-containing medium): did not promote proliferation
- effect on cell-cell contacts (ZO-1 staining) ([2]; 2.0 mg/ml EDTA for 60 minutes): caused cells to become rounded with only thin cytoplasmic strands connecting adjacent cells
- percent of treated cells with interrupted cell-contacts ([2]; corneal endothelial cells exposed to EDTA): at least 15%
